{
  "source": "patent US20140162942A1",
  "about": "“INHIBITION OF CYP3A DRUG METABOLISM” (priority 2010, published 2014)",
  "key": {"[1]": {"tested_on": "CYP3A4/5", "test": "NADPH dependence and effects of dilution of time-dependent inhibition of CYP3A4/5 (testosterone 6β-hydroxylation and midazolam 1′-hydroxylation)", "format": "in vitro ADME, human", "details": "3 μM"}, "[2]": {"target": "T1, CYP2D6 (Homo sapiens, UniProt P10635)", "T1 construct": "Pooled human liver microsomes (from sixteen individuals) were used as the source of enzymes; tissue XenoTech, LLC; host or cells: human liver microsomes, pool of sixteen donors", "T1 sequence (P10635 whole entry)": "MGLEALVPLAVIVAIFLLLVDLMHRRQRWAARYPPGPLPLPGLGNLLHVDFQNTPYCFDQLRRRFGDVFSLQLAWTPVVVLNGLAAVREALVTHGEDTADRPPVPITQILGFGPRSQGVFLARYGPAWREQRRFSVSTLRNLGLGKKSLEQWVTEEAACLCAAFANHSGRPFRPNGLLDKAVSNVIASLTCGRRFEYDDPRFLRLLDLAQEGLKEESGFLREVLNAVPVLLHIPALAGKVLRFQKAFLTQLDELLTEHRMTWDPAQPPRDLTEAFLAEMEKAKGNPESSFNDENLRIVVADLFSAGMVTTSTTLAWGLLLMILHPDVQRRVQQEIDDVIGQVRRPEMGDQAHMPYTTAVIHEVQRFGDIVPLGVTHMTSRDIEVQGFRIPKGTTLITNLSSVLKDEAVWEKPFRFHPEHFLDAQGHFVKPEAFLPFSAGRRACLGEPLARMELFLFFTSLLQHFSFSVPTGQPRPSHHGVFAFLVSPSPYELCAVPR", "test": "CYP2D6 inhibition, dextromethorphan O-demethylation in human liver microsomes", "format": "in vitro ADME", "details": "for Potential for Time-Dep. Inhibition: comparison with and without 30-minute pre-incubation; for inhibition at 5 min, 100 µM: human, pH 7.4, probe dextromethorphan (O-demethylation)", "description": "(§1) The basis for many of the following incubation conditions is described in the following references: Madan, et al., 2002,^(1) Huang, 2004,^(3) Ogilvie, et al., 2006,^(6) Pearce, et al., 1996,^(7) Tucker, et al., 2001,^(4) and Walsky and Obach, 2004.^(5) In general, incubations were conducted at approximately 37° C. in 400-μL incubation mixtures (target pH 7.4) containing high purity water, potassium phosphate buffer (50 mM), MgCl2 (3 mM), EDTA (1 mM), an NADPH-generating system [always the mixture of the following: NADP (1 mM), glucose-6-phosphate (5 mM), glucose-6-phosphate dehydrogenase (1 Unit/mL)], and marker substrate at the final concentrations indicated. Pooled human liver microsomes (from sixteen individuals) were used as the source of enzymes (Section 1.3.1.2). The concentrations of marker substrates were based on the Km and Vmax data that were determined previously (data not shown).\n(§2) Due to the possibility that boceprevir may bind to microsomal protein or lipids, an attempt was made to design these experiments such that, in as many cases as possible, the microsomal protein, incubation time, and phosphate buffer concentration were 0.1 mg/mL, 5 minutes and 50 mM, respectively, for assays performed with human liver microsomes (Table 1). […] Since it is not imperative that the concentration of marker substrates be exactly equal to Km, the marker substrate concentrations were rounded up or down, as applicable, to simplify the experimental design (data not shown). […] Thus, the final incubation concentration of phenacetin was 60 μM (Table 1).\n(§3) The ability of boceprevir to inhibit the CYP enzymes listed in Section 1.2.1 was investigated with a pool of sixteen individual human liver microsomal samples at the concentrations indicated in Table 1. Aliquots of the stock and/or working solutions of boceprevir were manually added to buffer mixtures containing the components described in Section 1.3.21. Incubation mixtures were prepared in bulk to obviate the need for directly pipetting very small volumes (i.e., 1 μL or less). Incubations containing no boceprevir (0 μM) contained the vehicle used to dissolve boceprevir (i.e., 1% methanol).\n(§4) The Tecan liquid handling system conducted all remaining incubation steps, with the exception of the centrifugation. Aliquots of the buffer mixtures were then automatically added to 96-well plates at the appropriate locations in duplicate. Aliquots of a substrate working solution were added to the 96-well plates, prior to initiating reactions, to give the final concentrations indicated in Table 1. Reactions were initiated with the addition of an aliquot of an NADPH-generating system. Reactions were automatically terminated at approximately 5 minutes, by the addition of the appropriate internal standard (Table 5) and stop reagent; acetonitrile. Precipitated protein was removed by centrifugation (920 g for 10 minutes at 10° C.). Standards and quality control samples were similarly prepared with the addition of authentic metabolite standards.\n(§5) To examine its ability to act as a time-dependent inhibitor, boceprevir (at the same concentrations used to evaluate direct inhibition) was pre-incubated at 37±1° C., in duplicate, with human liver microsomes and an NADPH-generating system for approximately 30 minutes. This pre-incubation allowed for the generation of intermediates that could inhibit human CYP enzymes. The pre-incubations were initiated with the addition of an aliquot of an NADPH-generating system. […] Reactions were automatically terminated, at approximately 5 minutes, by the addition of the appropriate internal standard (Table 5) and stop reagent; acetonitrile. Precipitated protein was removed by centrifugation (920 g for 10 minutes at 10° C.). Incubations containing no boceprevir (0 μM) and incubations that contained boceprevir but were not pre-incubated, served as negative controls."}, "[3]": {"target": "T2, CYP2C9 (Homo sapiens, UniProt P11712)", "T2 construct": "Pooled human liver microsomes (from sixteen individuals) were used as the source of enzymes; tissue XenoTech, LLC; host or cells: human liver microsomes, pool of sixteen donors", "T2 sequence (P11712 whole entry)": "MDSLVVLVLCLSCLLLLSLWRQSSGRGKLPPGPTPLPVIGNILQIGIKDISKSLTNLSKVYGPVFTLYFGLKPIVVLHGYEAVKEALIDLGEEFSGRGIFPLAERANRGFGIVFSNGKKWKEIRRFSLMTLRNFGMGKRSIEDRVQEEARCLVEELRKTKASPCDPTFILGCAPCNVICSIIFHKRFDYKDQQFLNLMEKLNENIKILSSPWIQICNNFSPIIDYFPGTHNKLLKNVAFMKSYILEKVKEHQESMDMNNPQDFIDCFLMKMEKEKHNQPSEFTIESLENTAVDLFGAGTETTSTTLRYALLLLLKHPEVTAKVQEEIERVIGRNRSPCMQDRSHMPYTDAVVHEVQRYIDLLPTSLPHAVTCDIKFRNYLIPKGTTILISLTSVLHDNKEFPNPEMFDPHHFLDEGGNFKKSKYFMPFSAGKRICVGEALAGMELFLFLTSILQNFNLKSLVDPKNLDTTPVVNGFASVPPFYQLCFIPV", "test": "CYP2C9 inhibition, diclofenac 4′-hydroxylation in human liver microsomes", "format": "in vitro ADME", "details": "for Potential for Time-Dep. Inhibition: comparison with and without 30-minute pre-incubation", "description": "as §1, §2, §3, §4\n(§6) To examine its ability to act as a time-dependent inhibitor, boceprevir (at the same concentrations used to evaluate direct inhibition) was pre-incubated at 37±1° C., in duplicate, with human liver microsomes and an NADPH-generating system for approximately 30 minutes. This pre-incubation allowed for the generation of intermediates that could inhibit human CYP enzymes. The pre-incubations were initiated with the addition of an aliquot of an NADPH-generating system. […]"}, "[4]": {"target": "T3, CYP2C8 (Homo sapiens, UniProt P10632)", "T3 construct": "Pooled human liver microsomes (from sixteen individuals) were used as the source of enzymes; tissue XenoTech, LLC; host or cells: human liver microsomes, pool of sixteen donors", "T3 sequence (P10632 1-490)": "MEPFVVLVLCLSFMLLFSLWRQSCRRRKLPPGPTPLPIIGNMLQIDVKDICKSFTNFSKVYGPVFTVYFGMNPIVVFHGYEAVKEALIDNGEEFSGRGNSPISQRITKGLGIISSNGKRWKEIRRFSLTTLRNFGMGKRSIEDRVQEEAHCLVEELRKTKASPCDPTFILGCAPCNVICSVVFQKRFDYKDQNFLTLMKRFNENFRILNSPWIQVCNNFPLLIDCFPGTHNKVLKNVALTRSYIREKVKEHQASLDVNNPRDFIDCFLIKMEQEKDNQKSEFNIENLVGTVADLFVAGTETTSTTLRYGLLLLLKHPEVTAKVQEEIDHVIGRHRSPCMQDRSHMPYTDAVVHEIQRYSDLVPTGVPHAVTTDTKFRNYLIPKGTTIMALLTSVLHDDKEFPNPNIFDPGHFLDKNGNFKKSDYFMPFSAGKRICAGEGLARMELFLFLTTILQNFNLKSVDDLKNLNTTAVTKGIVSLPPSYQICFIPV", "test": "CYP2C8 inhibition, amodiaquine N-dealkylation in human liver microsomes", "format": "in vitro ADME", "details": "for Potential for Time-Dep. Inhibition: comparison with and without 30-minute pre-incubation", "description": "as §1, §2, §3, §4, §6"}, "[5]": {"tested_on": "CYP3A4/5", "test": "CYP3A4/5 inhibition, midazolam 1′-hydroxylation in human liver microsomes (IC50 and Ki)", "format": "in vitro ADME", "details": "for Potential for Time-Dep. Inhibition: comparison with and without 30-minute pre-incubation", "description": "as §1, §2, §3, §4, §5"}, "[6]": {"details": "direct inhibition, zero-minute pre-incubation, pooled human liver microsomes"}, "[7]": {"details": "time-dependent inhibition, 30-minute pre-incubation"}},
  "note": "“Also recorded” adds a separate entry of the source. Where two headings read alike, the source gives them in different places.",
  "data": [
    {"smiles": "CC(C)(C)NC(=O)NC(C(=O)N1CC2C([C@H]1C(=O)NC(CC1CCC1)C(=O)C(N)=O)C2(C)C)C(C)(C)C", "note": "(stereo partly drawn) [Boceprevir, (1R,2S,5S)—N-[(2Ξ)-4-amino-1-cyclobutyl-3,4-dioxobutan-2-yl]-3-{(2S)-2-[(tert-butylcarbamoyl)amino]-3,3-dimethylbutanoyl}-6,6-dimethyl-3-azabicyclo[3.1.0]hexane-2-carboxamide]", "values": [
      {"measurement": "Resistance to dilution of the increase in inhibition upon pre-incubation", "setting": "[1]; 25-fold dilution after pre-incubation", "value": "did not appear to be resistant to dilution"},
      {"measurement": "NADPH dependence of the increase in inhibition upon pre-incubation", "setting": "[1]; pre-incubation 0, 15 and 30 minutes with and without NADPH", "value": "did require NADPH"},
      {"measurement": "Potential for Time-Dep. Inhibition", "setting": "[2]", "value": "little or no"},
      {"measurement": "Potential for Time-Dep. Inhibition", "setting": "[2]; listed as boceprevir", "value": "no discernable time-dependent inhibition"},
      {"measurement": "IC50", "setting": "[2]; [6]", "value": "> 100", "unit": "µM"},
      {"measurement": "inhibition at 5 min, 100 µM", "setting": "[2]; pooled human liver microsomes, direct inhibition, zero-minute pre-incubation, read-out: Max. Inhib. at 100 μM", "value": 45, "unit": "%"},
      {"measurement": "inhibition at 5 min, 100 µM", "setting": "[2]; pooled human liver microsomes, time-dependent inhibition, 30-minute pre-incubation, read-out: Maximum Inhibition at 100 μM", "value": 30, "unit": "%"},
      {"measurement": "IC50", "setting": "[2]; [7]", "value": "> 100", "unit": "µM"},
      {"measurement": "Potential for Time-Dep. Inhibition", "setting": "[3]", "value": "little or no"},
      {"measurement": "Potential for Time-Dep. Inhibition", "setting": "[3]; listed as boceprevir", "value": "no discernable time-dependent inhibition"},
      {"measurement": "IC50", "setting": "[3]; [6]", "value": "> 100", "unit": "µM"},
      {"measurement": "inhibition at 5 min, 100 µM", "setting": "[3]; human, pooled human liver microsomes, pH 7.4, probe diclofenac (4′-hydroxylation), direct inhibition, zero-minute pre-incubation, read-out: Max. Inhib. at 100 μM", "value": 3.6, "unit": "%"},
      {"measurement": "IC50", "setting": "[3]; [7]", "value": "> 100", "unit": "µM"},
      {"measurement": "Potential for Time-Dep. Inhibition", "setting": "[4]", "value": "little or no"},
      {"measurement": "Potential for Time-Dep. Inhibition", "setting": "[4]; listed as boceprevir", "value": "no discernable time-dependent inhibition"},
      {"measurement": "IC50", "setting": "[4]; [6]", "value": "> 100", "unit": "µM"},
      {"measurement": "inhibition at 5 min, 100 µM", "setting": "[4]; human, pooled human liver microsomes, pH 7.4, probe amodiaquine (N-dealkylation), direct inhibition, zero-minute pre-incubation, read-out: Max. Inhib. at 100 μM", "value": 25, "unit": "%"},
      {"measurement": "IC50", "setting": "[4]; [7]", "value": "> 100", "unit": "µM"},
      {"measurement": "Potential for Time-Dep. Inhibition", "setting": "[5]", "value": "yes^c"},
      {"measurement": "Potential for Time-Dep. Inhibition", "setting": "[5]; listed as boceprevir", "value": "caused time-dependent inhibition"},
      {"measurement": "Type of Inhibition", "setting": "[5]; direct inhibition", "value": "competitive; also recorded: competit"},
      {"measurement": "Type of Inhibition", "setting": "[5]; direct inhibition, listed as boceprevir", "value": "competitive"},
      {"measurement": "Ki at 5 min", "setting": "[5]; human, pooled human liver microsomes, pH 7.4, probe midazolam (1′-hydroxylation), direct inhibition", "value": 7.7, "unit": "µM"},
      {"measurement": "IC50 at 5 min", "setting": "[5]; human, pooled human liver microsomes, pH 7.4, probe midazolam (1′-hydroxylation), direct inhibition, zero-minute pre-incubation", "value": 11, "unit": "µM"},
      {"measurement": "inhibition at 5 min, 100 µM", "setting": "[5]; human, pooled human liver microsomes, pH 7.4, probe midazolam (1′-hydroxylation), direct inhibition, zero-minute pre-incubation, read-out: Max. Inhib. at 100 μM", "value": 91, "unit": "%"},
      {"measurement": "IC50 at 5 min", "setting": "[5]; human, pooled human liver microsomes, pH 7.4, probe midazolam (1′-hydroxylation), time-dependent inhibition, 30-minute pre-incubation", "value": 0.97, "unit": "µM"},
      {"measurement": "inhibition at 5 min, 100 µM", "setting": "[5]; human, pooled human liver microsomes, pH 7.4, probe midazolam (1′-hydroxylation), time-dependent inhibition, 30-minute pre-incubation, read-out: Maximum Inhibition at 100 μM", "value": 99, "unit": "%"}
    ]}
  ]
}
